The structures appear in SMILES notation.

One test has as its target rat P2X7 (Rattus norvegicus (Rat), UniProt Q64663). Description: Rat P2X7 functional assay (Ca2+ influx, Fluo-4, FDSS). The class given is cell-based. The following applies: HEK293 cells stably expressing rat P2X7; BzATP final 10 microM; 7-point dose-response; read-out: Antagonistic activities with respect to the rat P2X7 receptor (IC50). The gist of the method: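 IC50 derived from 7-point dose-response in duplicate, measuring inhibition of BzATP-evoked (final 10 microM) intracellular Ca2+ increase by Fluo-4 fluorescence on FDSS. Rat P2X7-HEK293 cells were exposed to compound for 10 min in the dark beforehand.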

The target of the next test is human P2X7 (Homo sapiens (Human), UniProt Q99572). The test is described as follows: Human P2X7 functional assay (Ca2+ influx, Fluo-4, FDSS). It counts as cell-based. The following applies: antagonistic activity with respect to the human P2X7 receptor; BzATP final concentration 80 microM. The method in brief:
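Ca2+ influx was triggered with BzATP (80 μM final) after a 10-min room-temperature compound preincubation and monitored with Fluo-4 (ex 480/em 540 nm) on FDSS. The cells were HEK293 stably carrying FLAG-tagged human P2X7. Duplicate-averaged 7-point dose-responses gave IC50s.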

Chain of human P2X7 (Q99572 whole entry): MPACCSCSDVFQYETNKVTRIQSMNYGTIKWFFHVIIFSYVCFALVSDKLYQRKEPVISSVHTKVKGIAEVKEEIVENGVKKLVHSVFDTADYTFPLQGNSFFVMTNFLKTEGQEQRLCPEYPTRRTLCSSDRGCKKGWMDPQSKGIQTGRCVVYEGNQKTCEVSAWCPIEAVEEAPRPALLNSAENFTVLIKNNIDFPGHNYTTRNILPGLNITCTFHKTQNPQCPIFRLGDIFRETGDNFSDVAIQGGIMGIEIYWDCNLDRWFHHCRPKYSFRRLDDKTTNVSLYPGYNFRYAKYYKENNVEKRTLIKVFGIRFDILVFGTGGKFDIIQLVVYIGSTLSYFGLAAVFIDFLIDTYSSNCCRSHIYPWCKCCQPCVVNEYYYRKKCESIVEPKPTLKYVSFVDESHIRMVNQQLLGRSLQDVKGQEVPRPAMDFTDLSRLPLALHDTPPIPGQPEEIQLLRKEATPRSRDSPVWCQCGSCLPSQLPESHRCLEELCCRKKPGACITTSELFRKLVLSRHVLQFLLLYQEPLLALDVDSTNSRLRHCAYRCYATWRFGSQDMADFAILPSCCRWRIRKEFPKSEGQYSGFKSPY
Chain of rat P2X7 (Q64663 whole entry): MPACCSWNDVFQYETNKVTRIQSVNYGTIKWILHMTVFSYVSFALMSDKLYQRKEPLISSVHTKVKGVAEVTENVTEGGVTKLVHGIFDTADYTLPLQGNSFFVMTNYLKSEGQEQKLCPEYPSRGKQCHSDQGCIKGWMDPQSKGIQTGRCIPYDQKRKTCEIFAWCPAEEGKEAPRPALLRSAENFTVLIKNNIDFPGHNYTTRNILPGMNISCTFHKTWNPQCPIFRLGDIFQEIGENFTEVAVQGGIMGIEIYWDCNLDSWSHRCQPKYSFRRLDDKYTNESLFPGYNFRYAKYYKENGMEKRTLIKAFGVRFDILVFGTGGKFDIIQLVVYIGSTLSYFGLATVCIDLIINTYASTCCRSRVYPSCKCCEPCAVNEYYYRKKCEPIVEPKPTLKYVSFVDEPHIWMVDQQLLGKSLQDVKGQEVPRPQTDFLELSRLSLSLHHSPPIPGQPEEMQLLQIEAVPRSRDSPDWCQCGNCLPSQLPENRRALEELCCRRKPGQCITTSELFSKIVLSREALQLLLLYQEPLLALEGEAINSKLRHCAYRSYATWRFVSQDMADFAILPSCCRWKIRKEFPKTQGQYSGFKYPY

Consider `O=C(NCc1c(Cl)cc(F)cc1CO)[C@]1(F)CC[C@@](O)(CO)c2ncccc21` [Example 317, (5S,8S)-N-(2-chloro-4-fluoro-6-(hydroxymethyl)benzyl)-5-fluoro-8-hydroxy-8-(hydroxymethyl)-5,6,7,8-tetrahydroquinoline-5-carboxamide], for which the results for the IC50 at rat P2X7 and on human P2X7 were less than 1000 nM and less than 50 nM, respectively.

`O=C(NCc1ccc(F)c(Cl)c1Cl)[C@]1(F)CC[C@@](O)(CO)c2ncccc21` [Example 320, (5S,8S)-N-(2,3-dichloro-4-fluorobenzyl)-5-fluoro-8-hydroxy-8-(hydroxymethyl)-5,6,7,8-tetrahydroquinoline-5-carboxamide]: the IC50 was less than 1000 nM on rat P2X7 and less than 50 nM against human P2X7.

Regarding `O=C(NCc1cccc(C(F)(F)F)c1Cl)C1(F)CCC(O)c2ncccc21` (centres unmarked) [Example 19, N-(2-chloro-3-(trifluoro-methyl)benzyl)-5-fluoro-8-hydroxy-5,6,7,8-tetrahydro-quinoline-5-carboxamide], the 50% inhibitory concentration (IC50) at rat P2X7 is less than 1000 nM; on human P2X7, less than 50 nM.

As to `O=C(NCc1c(Cl)cc(Cl)cc1C(F)F)[C@]1(F)CC[C@H](O)c2ncccc21` [Example 149, (5S,8S)-N-(2,4-dichloro-6-(difluoromethyl)benzyl)-5-fluoro-8-hydroxy-5,6,7,8-tetrahydroquinoline-5-carboxamide], the figures for the 50% inhibitory concentration (IC50) on rat P2X7 and on human P2X7 were less than 1000 nM and less than 50 nM, respectively.

Turning to `O=C(NC1COc2cc(Cl)cc(Cl)c21)[C@]1(F)CC[C@H](O)c2ncccc21` (stereo partly drawn) [Example 229, (5S,8S)-N-(4,6-dichloro-2,3-dihydrobenzofuran-3-yl)-5-fluoro-8-hydroxy-5,6,7,8-tetrahydroquinoline-5-carboxamide], the IC50 at rat P2X7 was less than 1000 nM; against human P2X7, less than 50 nM.

On to `CN(CCO)C[C@]1(O)CC[C@@](F)(C(=O)NCc2ccc(Cl)cc2Cl)c2cccnc21` [Example 277, (5S,8R)-N-(2,4-dichlorobenzyl)-5-fluoro-8-hydroxy-8-(((2-hydroxyethyl) (methyl)amino)methyl)-5,6,7,8-tetrahydroquinoline-5-carboxamide], for which the IC50 at rat P2X7 was less than 1000 nM; at human P2X7, less than 50 nM.

For `O=C(NCc1ccc(Cl)cc1Cl)[C@H]1CC[C@@H](O)c2ncccc21` [Example 88, (5S,8R)-N-(2,4-dichloro-benzyl)-8-hydroxy-5,6,7,8-tetrahydroquinoline-5-carboxamide], the concentration for half-maximal inhibition (IC50) at rat P2X7 was less than 1000 nM; on human P2X7 it was less than 50 nM.

With `O=C(N[C@@H]1CCCc2ccccc21)[C@]1(F)CC[C@H](O)c2ncccc21` [Example 189, (5S,8S)-5-fluoro-8-hydroxy-N-((R)-1,2,3,4-tetrahydronaphthalen-1-yl)-5,6,7,8-tetrahydroquinoline 5-carboxamide], the concentration for half-maximal inhibition (IC50) at rat P2X7 was less than 1000 nM; on human P2X7, less than 50 nM.

Regarding `O=C(NCc1ccc(Br)cc1F)[C@]1(F)CC[C@H](O)c2ncccc21` [Example 182, (5S,8S)-N-(4-bromo-2-fluorobenzyl)-5-fluoro-8-hydroxy-5,6,7,8-tetrahydroquinoline-5-carboxamide], the IC50 at rat P2X7 was less than 1000 nM; at human P2X7 it was less than 50 nM.

As for `O=C(NCc1ccc(Cl)cc1Cl)[C@@]1(F)CC[C@](O)(CO)c2ncccc21` [Example 302, (5R,8R)-N-(2,4-dichlorobenzyl)-5-fluoro-8-hydroxy-8-(hydroxymethyl)-5,6,7,8-tetrahydroquinoline-5-carboxamide], the IC50 at rat P2X7 was less than 1000 nM; on human P2X7, 101 to 300 nM.

Turning to `Cc1cc(Cl)cc(Cl)c1CNC(=O)C1CCC(O)(CO)c2ncccc21` (centres unmarked) [Example 33, N-(2,4-dichloro-6-methylbenzyl)-8-hy-droxy-8-(hydroxymethyl)-5,6,7,8-tetra-hydroxuqinoline-5-carboxamide], the values for the IC50 at rat P2X7 and against human P2X7 were less than 1000 nM and less than 50 nM, respectively.

As to `Cc1cc(Cl)cc(Cl)c1CNC(=O)C1(F)CCC(=O)c2ncccc21` (centres unmarked) [Example 12, N-(2,4-dichloro-6-methylbenzyl)-5-fluoro-8-oxo-5,6,7,8-tetrahydroquinoline-5-carboxamide], the results for the half-inhibitory concentration (IC50) on rat P2X7 and against human P2X7 were less than 1000 nM and less than 50 nM, respectively.

`O=C(NCc1c(Cl)cc(C(F)(F)F)cc1Cl)[C@]1(F)CC[C@H](O)c2ncccc21` [Example 148, (5S,8S)-N-(2,6-dichloro-4-(trifluoromethyl)benzyl)-5-fluoro-8-hydroxy-5,6,7,8-tetrahydroquinoline-5-carboxamide]: the concentration for half-maximal inhibition (IC50) at rat P2X7 is less than 1000 nM; on human P2X7, less than 50 nM.

For the compound `O=C(NCc1c(F)cc(Cl)cc1Cl)[C@]1(F)CC[C@](O)(CO)c2ncccc21` [Example 311, (5S,8R)-N-(2,4-dichloro-6-fluorobenzyl)-5-fluoro-8-hydroxy-8-(hydroxymethyl)-5,6,7,8-tetrahydroquinoline-5-carboxamide], the values for the IC50 at rat P2X7 and against human P2X7 were less than 1000 nM and 50 to 100 nM, respectively.

Regarding `O=C(NCc1ccc(F)c(F)c1Cl)[C@]1(F)CC[C@@](O)(CO)c2ncccc21` [Example 312, (5S,8S)-N-(2-chloro-3,4-difluorobenzyl)-5-fluoro-8-hydroxy-8-(hydroxymethyl)-5,6,7,8-tetrahydroquinoline-5-carboxamide], the IC50 was less than 1000 nM on rat P2X7 and less than 50 nM on human P2X7.

Consider `O=C(NCc1ccc(F)c(F)c1F)[C@]1(F)CC[C@H](O)c2ncccc21` [Example 137, (5S,8S)-5-fluoro-8-hydroxy-N-(2,3,4-trifluorobenzyl)-5,6,7,8-tetrahydroquinoline-5-carboxamide], for which the values for the IC50 on rat P2X7 and against human P2X7 were less than 1000 nM and less than 50 nM, respectively.

As for `C[C@@H](NC(=O)[C@]1(F)CC[C@H](O)c2ncccc21)c1ccc(F)cc1Cl` [Example 237, (5S,8S)-N-((R)-1-(2-chloro-4-fluorophenyl)ethyl)-5-fluoro-8-hydroxy-5,6,7,8-tetrahydroquinoline-5-carboxamide], the values for the IC50 on rat P2X7 and against human P2X7 were less than 1000 nM and less than 50 nM, respectively.

In the case of `O=C(NCc1c(F)cc(Cl)cc1Cl)[C@@H]1CC[C@H](O)c2ncccc21` [Example 70, (5R,8S)-N-(2,4-dichloro-6-fluorobenzyl)-8-hy-droxy-5,6,7,8-tetrahydro-quinoline-5-carboxamide], the IC50 on rat P2X7 is less than 1000 nM; against human P2X7, less than 50 nM.

For `O=C1CC[C@@](F)(C(=O)NCc2ccc(C(F)(F)F)cc2Cl)c2cccnc21` [Example 253, (S)-N-(2-chloro-4-(trifluoromethyl)benzyl)-5-fluoro-8-oxo-5,6,7,8-tetrahydroquinoline-5-carboxamide], the IC50 was less than 1000 nM at rat P2X7 and less than 50 nM against human P2X7.

Take `O=C(NCc1ccc(Cl)cc1Cl)[C@]1(F)CC[C@](O)(CO)c2ncccc21` [Example 305, (5S,8R)-N-(2,4-dichlorobenzyl)-5-fluoro-8-hydroxy-8-(hydroxymethyl)-5,6,7,8-tetrahydroquinoline-5-carboxamide]: the figures for the IC50 at rat P2X7 and on human P2X7 were less than 1000 nM and less than 50 nM, respectively.

Regarding `O=C(NCc1ccc(Br)cc1F)[C@@H]1CC[C@H](O)c2ncccc21` [Example 80, (5R,8S)-N-(4-bromo-2-fluorobenzyl)-8-hydroxy-5,6,7,8-tetrahydroquinoline-5-carboxamide], the values for the IC50 on rat P2X7 and on human P2X7 were less than 1000 nM and 50 to 100 nM, respectively.

Turning to `O=C1NC[C@@]2(CC[C@@](F)(C(=O)NCc3ccc(Cl)cc3Cl)c3cccnc32)O1` [Example 292, (5R,5′S)-N-(2,4-dichlorobenzyl)-5′-fluoro-2-oxo-6′,7′-dihydro-5′H-spiro [oxazolidine-5,8′-quinoline]-5′-carboxamide], the figures for the IC50 on rat P2X7 and against human P2X7 were less than 1000 nM and 50 to 100 nM, respectively.

As a reminder, the IC50 is the midpoint of a concentration-inhibition curve.

Values taken from patent publication US11077100B2, “Tetrahydroquinoline derivatives as P2X7 receptor antagonists” (RaQualia Pharma Inc., priority 2017, dated 2021).
